What was measured:
[1] = system: CD4+ T cells induced to differentiate into Th17; assay: Differentiation and functional enhancement activity of Th17 cells (IL-17 expression); type: cell-based, C57BL/6J mice; details: 25 μM final concentration; culture for 3 days under Th17 differentiation conditions; Veh control about 35%
Description: 8-week-old C57BL/6J mice were purchased and adapted for 1 week, and then CD4+ T cells were isolated from spleens and lymph nodes. Th17 cell differentiation was induced by media containing IL-6, TGF-beta1, IL-1beta, anti-IFN-gamma, and anti-IL-4, and through culturing for 3 days, it was confirmed that about 35% of IL-17 cytokine was expressed in a Veh group, which was a control group treated with only a solvent of the compound, thereby establishing basic conditions for the differentiation of Th17 cells. Under the conditions of differentiation of Th17 cells, each substance was treated at a final concentration of 25 μM.
As a result, as may be seen in the drawings, it was confirmed that Compounds 1 to 3 increased the IL-17 cytokine expression by 70%, 63%, and 62%, respectively, and through this, it was confirmed that the three compounds were able to improve the differentiation and function of Th17 cells.

[2] = system: CD4+ T cells induced to differentiate into Treg; assay: Differentiation and function of Treg cells (Foxp3 expression); type: cell-based, C57BL/6J mice; details: 25 μM final concentration; culture for 3 days in medium containing IL-2 and TGF-beta1; control about 19%
Method: • 8-week-old C57BL/6J mice were purchased and adapted for 1 week, and then CD4+ T cells were isolated from spleens and lymph nodes. Differentiation of regulatory T cells was transferred through a medium containing IL-2 and TGF-beta1, and through culture for 3 days, it was confirmed that about 19% of a Foxp3 transcription factor was expressed in the control group. Each substance was treated at a final concentration of 25 μM.

CO[C@@H]1C[C@H]2[C@H](OC(=O)c3ccc(O)c(O)c3)[C@@H]3O[C@]3(CO)[C@H]2C(O[C@@H]2O[C@H](CO)[C@@H](O)[C@H](O)[C@H]2O)O1 (stereo partly drawn) [Compound 1, veroninakaioside G]
increased the IL-17 cytokine expression [1]: 70% | reduced the Foxp3 transcription factor expression [2]: 4.4%

COc1ccc(CCO[C@@H]2O[C@H](CO)[C@@H](OC(=O)/C=C/c3ccc(O)c(OC)c3)[C@H](O[C@@H]3O[C@H](CO)[C@@H](O)[C@H](O)[C@H]3O)[C@H]2O[C@@H]2O[C@H](CO)[C@@H](O)[C@H](O)[C@H]2O)cc1O [Compound 2, chionoside I]
increased the IL-17 cytokine expression [1]: 63% | reduced the Foxp3 transcription factor expression [2]: 8.3%

COc1cc(/C=C/C(=O)OC[C@H]2O[C@@H](OCCc3ccc(O)c(OC)c3)[C@H](O)[C@@H](O[C@@H]3O[C@H](CO)[C@@H](O)[C@H](O)[C@H]3O[C@@H]3O[C@H](CO)[C@@H](O)[C@H](O)[C@H]3O)[C@@H]2O)ccc1O [Compound 3, veroninakaioside H]
increased the IL-17 cytokine expression [1]: 62% | reduced the Foxp3 transcription factor expression [2]: 6.6%

From patent US20240216462A1, “PHARMACEUTICAL COMPOSITION FOR ENHANCING IMMUNITY OR ANTI-CANCER ACTIVITY INCLUDING EXTRACT OF PSEUDOLYSIMACHION NAKAIANUM (OHWI) T.YAMAZ AS ACTIVE INGREDIENT” (KOREA INSTITUTE OF SCIENCE AND TECHNOLOGY, priority 2022, published 2024)
